The values below come from patent US20140329692A1, “METHOD FOR MEASURING DNA METHYLATION PROFILES” (ALBERT EINSTEIN COLLEGE OF MEDICINE OF YESHIVA UNIVERSITY, priority 2013, published 2014).

Structures are written as SMILES.

Test [1] relates to promoter region of Oct4. Kind of test: DNA methylation profile of the Oct4 promoter in 5-Aza-treated MEFs (bisulfite treatment, MDA amplification, nested PCR, Sanger sequencing). The format is cell-based, mouse. The following applies: 1 μM 5-Aza. From the text:
To definitively test the protocol, it was investigated whether it was capable of directly detecting epimutations, i.e., random changes in methylation status of single cytosines as a consequence of, for example, errors in de novo or maintenance methylation. While estimates of DNA methylation accuracy have been reported (13, 14), it has never been possible to directly determine such epimutations. To test if the method was able to detect single cell-specific epimutations, a time course experiment was performed in MEFs treated with 5-azacytidine (5-Aza). 5-Aza prevents methylation at CpG sites in newly synthesized DNA through covalent binding to Dnmt1 (15). […] Cultured cells were treated with 1 μM 5-Aza for 48 and 72 hours; ten single cells as well as 100-cell controls from each treatment group were subjected to lysis and bisulfite treatment followed by MDA amplification. Then the promoter region of Oct4 was tested and it was shown that a fully methylated pattern of CpG sites was present in the untreated single fibroblasts as well as in the 100-cell control (FIG. 1B, upper panel).
Isolation of single mouse embryonic fibroblasts: Mouse embryonic fibroblasts (MEFs) were isolated from embryonic day 13.5 embryos of C57BL/6 mice as described (31). All cultures were maintained in a 3% O2 and 5% CO2 atmosphere. The solutions of 5-aza-2′-deoxycytidine (5-Aza; Sigma, St. Louis, Mo., USA) in culturing medium were prepared at the time of application and applied every 24 hours for 72 hours. After trypsinization, single MEFs were collected under an inverted microscope by hand-held capillaries, deposited in PCR tubes and immediately frozen on dry ice and stored at […] until needed or immediately bisulfite-converted.
Bisulfite conversion: The bisulfite conversion and recovery of DNA were performed using the EZ DNA Methylation-Direct Kit (Zymo Research, Orange, Calif.). Bisulfite conversion was performed according to the instructions of the supplier with some modifications. First the bisulfite solution was added to the single or 100 cells together with 2 ng of salmon sperm DNA or tRNA. […]

In test [2] the test system is global methylation. To be noted: 5-Aza treatment; cited from earlier work.

As for `Nc1ncn([C@H]2C[C@H](O)[C@@H](CO)O2)c(=O)n1` [5-Aza, 5-aza-2′-deoxycytidine], the “demethylation of Oct4 promoter” value in test [1] (48 hours, 100-cell sample) is less than 50%. In addition, the “methylation status of Oct4 promoter CpG sites” value was “a mixed population was found comprising either methylated or unmethylated cytosines” in test [1] (48 hours, single fibroblasts); “fully demethylated” in test [1] (72 hours, both single fibroblasts and 100-cell control sample). Besides, the global methylation entry in test [2] is on record as “significant decrease in global methylation”.
